Legend:
[1] = test system: B-ALL cells expressing NT5ex4a; experiment: In vitro sensitivity to mizoribine of cells expressing the non-canonical NT5C2 isoform; assay type: cell-based; settings: expression of the non-canonical isoform NT5ex4a
Description: FIG. 6: Mizoribine specifically blocks the […], adding extra pressure in NT5C2 hyperactive cells (Dieck et al., Blood, 2019). (Left panel) Mechanism of action of 6-MP and 6-TG purine analogs. (Right panel) Effects of NT5C2 activating-mutations on purine bases synthesis and degradation.
(§1) Consistent with this biochemical finding, in reconstituted NT5C2low B-ALL cells NT5ex4a conferred the same level of resistance to 6-MP as the variant with the R238W hotspot mutation (2-log difference in IC50). […] Therefore, inclusion of NT5C2 exon 4a phenocopies relapse-specific mutations and could serve as both a valuable predictive biomarker in B-ALL and potentially chronic myelogenous (CML) and acute myeloid leukemia (AML).

697 cell line = experiment: 6-MP dose-response in CRISPR/Cas9 NT5C2-KO model, 697; assay type: cell-based
Description: (§2) FIG. 4: NT5C2 KO in MHHCALL4. (Top left panel) CRISPR/CAS9 strategy for the generation of total NT5C2 or NT5ex4a isoform specific KOs, representing the exons that will be targeted for each model. (Top right panel) Western-Blot of the NT5C2 levels on the parental, NT5C2-KO and NT5ex4a (E4a) KO models in the 697 and MHHCALL4 cell lines.

MHHCALL4 cell line = experiment: 6-MP dose-response in CRISPR/Cas9 NT5C2-KO and NT5ex4a (E4a) KO models, MHHCALL4; assay type: cell-based
Description: as §2, §1

[2] = test system: reconstituted NT5C2low B-ALL cells; experiment: Resistance to 6-MP in reconstituted NT5C2low B-ALL cells expressing NT5C2 isoforms; assay type: cell-based
Description: FIGS. 8A-8C: Possible effects of phosphorylation of the NT5C2 activity. (FIG. 8A) Predicted serine and threonine phosphorylation sites in the NT5C2 amino acid sequence. […] (SEQ ID NOS: 5-24) (FIG. 8B) Top ten kinases predicted to phosphorylate the NT5C2 exon NT5ex4a-encoded peptide. (FIG. 8C) Increased pro-survival activity of NT5C2 E4a isoform where the Ser-121 has been replaced by a phosphomimetic aspartic acid (S121D). Compare curves with rectangles and triangles.
as §1
To determine the mechanism underlying the pro-survival activity of the NT5C2 E4a isoform, it was considered that it might be phosphorylated. Indeed, the application of predictive algorithms identified serine at position 121 as the residue in exon NT5ex4a most likely to be phosphorylated (FIG. 8A). Based on the amino acid context, it most strongly resembles consensus sites for kinases of the AGC, CAMK, and PIKK families. The latter includes such important cancer-related kinases as ATR and ATM (FIG. 8B). […]

[3] = test system: REH cells over-expressing the WT, E4a or R238W NT5C2 isoforms; experiment: 6-MP chemoresistance in vivo in xenografted B-ALL cells expressing NT5C2 isoforms; parameters: species or system mice; settings: xenografted B-ALL cells expressing NT5ex4a
Description: FIG. 5: NT5C2 E4a alternative isoform in 6-MP resistance. (Left panel) Bioluminescent mouse image of mice engrafted with REH cells over-expressing the WT, E4a or R238W NT5C2 isoforms at different time points. (Right panel) Flux quantification of mice engrafted with REH cells over-expressing the WT, E4a or R238W NT5C2 isoforms at different time points.
as §1

difference in IC50 (resistance to 6-MP) ([2]; NT5ex4a, same level of resistance as the R238W hotspot mutation variant, compared to the canonical isoform) [log]	Compound	sensitivity to mizoribine [1]	sensitivity to 6-MP treatment (dose-response plots) (697 cell line)	cell survival in the presence of 6-MP (MHHCALL4 cell line; CRISPR/Cas9 engineered NT5ex4a KO cells)	sensitivity to 6-MP treatment (dose-response plots) (MHHCALL4 cell line; E4a-KO, E4a-high expression MHHCALL4)	sensitivity to 6-MP treatment (dose-response plots) (MHHCALL4 cell line; NT5C2-KO, MHHCALL4)	survival in the presence of 6-MP ([2]; E4a isoform with Ser-121 replaced by aspartic acid (S121D) versus parental E4a or the alanine derivative)	chemoresistance in vivo [3]
	NC(=O)c1ncn([C@@H]2O[C@H](CO)[C@@H](O)[C@H]2O)c1O [mizoribine, 4-carbamoyl-1-β-d-ribofuranosyl imirdozolium]	collateral sensitivity						
2	S=c1nc[nH]c2nc[nH]c12 [6-MP, mercaptopurine]		increased sensitivity	reduced cell survival	increased sensitivity	increased sensitivity	stronger survival advantages	chemoresistance in vivo was further confirmed

— patent US20250320562A1, “ALTERNATIVELY SPLICED ISOFORM IN CANCER AND METHODS OF USE THEREOF” (THE CHILDREN'S HOSPITAL OF PHILADELPHIA, priority 2022, published 2025)
